According to patent US20230097883A1, “ERGOTHIONEINE PET COMPOUNDS AND METHODS OF USE THEREOF” (VANDERBILT UNIVERSITY, priority 2021, published 2023):

Experiments:
Format in all cases: in vivo, mouse
5XFAD mice [1] = test: Conditioned fear task after ERGO treatment; conditions: ERGO-treated 5XFAD mice, novel context, 25 hours following training
Method: (§1) To address our primary question whether longitudinal consumption of ERGO as a potent antioxidant benefit the brain, three cohorts of animals (n=12 non-treated WT control, n=12 non-treated 5XFAD, and n=18 ERGO-treated 5XFAD) were used (FIG. 3.2A). Starting at the age of 8 weeks, the animals were treated with high doses of ERGO solution (25-50 mg/Kg) formulated in double distilled (dd) water via oral gavage three times a week over the course of eight weeks. To reduce bias in the behavioral experiments with regard to the potential stress during gavage treatment, non-treated animals underwent the identical gavage process with the vehicle, water, only. The efficacy of the therapy was evaluated by behavioral testing, followed by three different non-invasive PET imaging sessions to assess biomarkers related to AD pathology. In addition to assessing Abeta levels and glucose metabolism using the [^11C]PIB and [^18F]FDG probes, respectively; we also tested for the first time whether oxidative stress could be used as an indicator of response to therapy using the [^11C]ERGO PET radioligand. Finally, animals were euthanized, and the brains were collected for immunohistochemical analysis. […]
Mice were placed in a sound-attenuating chamber with a wire grid floor capable of transmitting an electric shock. All movements were monitored by cameras fixed to the inside of the doors. […]

5XFAD mice [2] = test: Elevated zero maze after ERGO treatment
Method: as §1, with “radioligand.” for “radioligand. Finally, animals were euthanized, and the brains were collected for immunohistochemical analysis.”
We recorded exploratory activity in open versus closed zones of a standard EZM during a 5-min trial. […] Closed zones had walls of approximately 30 cm height and light levels of 215-280 lux depending on where they were measured. […]

[3] = 90-minute dynamic PET scanning of [11C]ERGO biodistribution in the brain of 5XFAD mice
Method: The dynamic acquisition was divided into twelve 5 sec frames, four 60 sec frames, five 120 sec frames, three 5 min frames, and six 10 min scans. The data from all possible lines of response (LOR) were saved in the list mode raw data format. The raw data were then binned into 3D sinograms with a span of 3 and ring difference of 47. The images were reconstructed into transaxial slices (128×128×159) with voxel sizes of 0.0815×0.0815×0.0796 cm^3, using the MAP algorithm with 16 subsets, 4 iterations, and a beta of 0.0468. For anatomical co-registration, immediately following the PET scans, the mice received a CT scan in a NanoSPECT/CT (Mediso, Wash. D.C.) at an X-ray beam intensity of 90 mAs and x-ray peak voltage of 45 kVp. The CT images were reconstructed into 170×170×186 voxels at a voxel size of 0.4×0.4×0.4 mm^3. The PET/CT images were uploaded into Amide software (www.sourceforge.com), co-registered to an MRI template made in-house, and volumetric regions-of-interest were drawn around the cortex, hippocampus, striatum, thalamus, and cerebellum in addition to the whole brain. The PET images were normalized to the injected dose, and the time-activity-curves (TACs) of the mean activity within the ROIs were estimated for the entire duration of the scans.
To test the distribution of ERGO non-invasively in vivo, approximately 37 MBq/0.1 mL of [^11C]ERGO probe was given to anesthetized 5XFAD mice (8-month-old, n=4) in single bolus intravenous (I.V.) injection via the lateral tail vein. The administration of the probe was simultaneous with the start of a 90-minute dynamic PET imaging, followed by subsequent CT scan. The PET images were normalized to the injected dose, and the time-activity-curves (TACs) of the mean activity within the ROIs were estimated for the entire duration of the scans. Within 5 min post I.V. injection, [^11C]ERGO can be detected in the brain parenchyma (FIG. 1.5A, top panel). […] Using an age-matched mouse brain template, the positron-emitted signal at different brain regions was quantified using AMIDE software. […]

Row | SMILES | cue-based recall, freezing time while the cue was played (5XFAD mice [1]) [%] | adverse effects on activity or anxiety-like behavior (5XFAD mice [2]; 5XFAD mice, ERGO 25-50 mg/Kg oral gavage three times a week over eight weeks) | time spent exploring the closed zones (5XFAD mice [2]; ERGO-treated 5XFAD mice (each group), 5-min trial) [%] | time post I.V. injection at which the probe can be detected in the brain parenchyma ([3]; 8-month-old, approx. 37 MBq/0.1 mL single I.V. bolus) [min] | retention of the probe in the brain ([3]; 30 min post radiotracer injection) | regional distribution of the probe in the brain (PET signal) ([3]; approx. 37 MBq/0.1 mL I.V., 90-min dynamic PET)
1 | C[N+](C)(C)[C@@H](Cc1c[nH]c(=S)[nH]1)C(=O)[O-] [ERGO, L-ergothioneine] | ~50 | no adverse effects | ~60 | – | – | –
2 | C[N+](C)([11CH3])[C@@H](Cc1c[nH]c(=S)[nH]1)C(=O)[O-] [[^11C]ERGO] | – | – | – | ≤ 5 | still remained in the brain | high concentration in the cerebellum and cortex
